Measured values from article PMC10932281, “A Combination of β-Aescin and Newly Synthesized Alkylamidobetaines as Modern Components Eradicating the Biofilms of Multidrug-Resistant Clinical Strains of Candida glabrata” (International Journal of Molecular Sciences, 2024).
Values after ≈ are worked out from the molar mass of the structure shown. Like-named read-outs stand apart in the source and are kept apart here.

Tests used:
[1] = system: C. glabrata ATCC 90030; assay: MIC90/MFC, EUCAST broth microdilution; type: cell-based, Candida glabrata
[2] = system: C. glabrata 2586 clinical strain; assay: MIC90/MFC, EUCAST broth microdilution; type: cell-based, Candida glabrata
[3] = system: C. glabrata 2853 clinical strain; assay: MIC90/MFC, EUCAST broth microdilution; type: cell-based, Candida glabrata
[4] = system: C. glabrata 2586 biofilm; assay: Biofilm eradication on polystyrene, fluorescence microscopy (Syto9/PI); type: cell-based, Candida glabrata
Description: (§1) C. glabrata biofilm eradication on polystyrene surfaces was assessed according to the following procedure: 1 mL of C. glabrata culture, 10^6 CFU/mL in RMPI 1640 MOPS-buffered medium, was pipetted into the wells of a 48-well adherent plate. Cultures were incubated at 37 °C for 72 h with shaking (400 RPM). […] Non-treated cells were used as the control. This experiment was carried out in triplicate. The analysis of the biofilm eradication of C. glabrata strains on polystyrene surfaces was performed using fluorescence microscopy (FM). For further information, see Section 4.12. below.
(§2) The 72 h biofilm of C. glabrata strains on polystyrene surfaces was stained on 48-well adherent plates with 1 µL of propidium iodide (Ex λ = 543 nm/Em λ = 617 nm) and 1 µL of SYTO9 (Ex λ = 488 nm/Em λ = 503 nm) for 30 min using a LIVE/DEAD BacLight Bacterial Viability Kit (Thermo Fisher Scientific, Waltham, MA USA). Imaging was performed using a fluorescence microscope (FM) BX51 (Olympus, Tokyo, Japan) equipped with an Orca Flash 40 camera (Hamamatsu, Hamamatsu City, Japan) and 10× objective Plan APO. Scale bar = 100 µm. Detailed computer qualitative and quantitative analyses of the obtained pictures were performed by estimating the coverage area on the polystyrene plate (the percentage of the area occupied by the fungal biofilm). The cell viability analysis was performed by calculating the fluorescence intensity of the dyes (Syto9/PI) used. The acquired images were processed and analyzed using Fiji/ImageJ software ver. 1.53c (NIH, Bethesda, MD, USA). First, maximum intensity projections (MIPs) were obtained from stacks of images. The areas of the binary images were transferred into the original live and dead channel MIP images. The mean fluorescence intensities of all detected objects per field of view were calculated using ImageJ’s Analyze Threshold function (Software: ImageJ version 1.53 from Softonic).

[5] = system: C. glabrata 2853 biofilm; assay: as above; type: cell-based, Candida glabrata
Description: as §1, §2

[6] = system: C. glabrata ATCC 90030 biofilm; assay: as above; type: cell-based, Candida glabrata
Description: as §1, §2

[7] = system: sheep red blood cells; assay: Hemolysis assay; type: cell-based
Description: This test was performed according to a modified method. The hemolytic activity of the compounds was determined using sheep red blood cells. The blood was centrifuged (2000 RPM; 15 min) and rinsed 3 times with PBS. A total of 25 µL of erythrocytes for each sample were added to 500 µL of PBS to obtain the final concentration for the newly synthesized AABs: 0.25 µM, 0.5 µM; 1 µM, 2 µM; and 3 µM, and for β-AE, obtaining the following final concentrations: 100 µg/mL; 250 µg/mL; 500 µg/mL; 750 µg/mL; and 1000 µg/mL. The negative control (C−) consisted of erythrocytes suspended in PBS, and the positive control consisted of erythrocytes suspended in a 1% SDS solution. The samples were incubated for 2 h at 37 °C with shaking at 140 RPM. After this time, the blood cells were centrifuged (10 min; 2500 RPM), and 300 μL of the supernatant was transferred into a 96-well titration plate. Absorbance measurements were performed at a wavelength of λ = 540 nm. Measurements were performed in 10 repetitions. Finally, the values that were obtained from the samples treated with the test compound (OD test) were normalized relative to the positive (100% lysis; OD (C+)) and negative (untreated; OD (C−)) control samples to give the hemolysis ratio (HR) by using the following equation: HR (%) = OD test−OD (C−)/OD (C+) − OD (C−) × 100%.

[8] = system: Balb/3T3 mouse embryonic fibroblasts; assay: Cell proliferation assay (MTT test); type: cell-based; design: Survival of the tested cell line: dose or concentration left out as unconfirmed; conditions: 24 h
Description: Balb/3T3 (ATCC CCL-163) mouse embryonic fibroblasts were cultured in DMEM medium supplemented with 10% fetal bovine serum, 1 mM L-glutamine, and a 1% penicillin/streptomycin solution and were used for our cytotoxicity studies. The cells were cultured at 37 °C and 5% CO2 until the cell density of 10^6 mL^−1 was obtained. Such cells were then seeded in 24-well tissue microplates (2 × 10^4 cells per well) and allowed to adhere overnight under the abovementioned conditions. Cytotoxicity tests were carried out on the cells prepared in this way.
The newly synthesized AABs (C9, C11, C13, and C15) were selected based on previous studies. They were analyzed at the concentrations of 0.25, 0.5, 1, 2, and 3 µM. […] The BALB-3T3 cells were treated with the prepared mixtures, dissolved in a complete cell culture medium, and then incubated for 24 h under the abovementioned conditions. Three independent replicates were performed for each combination of compounds.
The cytotoxic effect of the tested compounds in combination with β-AE was evaluated by measuring mitochondrial dehydrogenase activity using the MTT assay. After a 24 h incubation period, the medium supplemented with the 1mM MTT solution was added to each well. The cultures were continued for another 4 h under the conditions enriched with 5% CO2. After this time, the supernatant was collected, and MTT formazan was extracted from the cells using DMSO. The reaction was then stopped with Sörensen buffer (0.1 mol/L glycine; 0.1 mol/L NaCl; and pH 10.5). The percentage of cytotoxicity was calculated by comparing the absorbance values (λ = 560 nm) of the test sample to the control sample, which was untreated fibroblast cells. In the test performed, the negative control (C−) (sample not treated; PBS added) and positive control (C+) were fibroblast cells treated with 1% SDS [60].

[9] = system: C. glabrata 2853; assay: Interaction of AABs (3 µM) with antifungal agents, modified checkerboard; type: cell-based, Candida glabrata
[10] = Nakaseomyces glabratus, AAB alone, read-out: MIC converted to

Molecule: CCCCCCCCCC(=O)N(C)CCC[N+](C)(C)CC(=O)[O-] [C9]
- MIC90 ([1]; ATCC 90030, AAB alone): 3 µM/mL
- MIC ([1]; Nakaseomyces glabratus, ATCC90030, reference strain, AAB alone, read-out: MIC converted to): 985 µg/mL (≈ 3000 µM)
- MIC90 ([2]; AAB alone): 3 µM/mL
- MIC [2, 10]: 985 µg/mL (≈ 3000 µM)
- MIC90 ([3]; AAB alone): 1 µM/mL
- MIC [3, 10]: 328 µg/mL (≈ 1000 µM)
- Biofilm surface area ([4]; C9 combined with β-AE, optimal concentration configuration, control 73.17%): 2.1%
- Percentage of live cells ([4]; C9 in combination with β-AE, 72 h, control 97.99%): 1.93%
- viability at 1 µM ([4]; Nakaseomyces glabratus, 2586BIOFILM, AAB alone 1 μM, 72 h, read-out: Biofilm Viability [%] 2586 Live): 3.28%
- viability at 2 µM ([4]; Nakaseomyces glabratus, 2586BIOFILM, AAB alone 2 μM, 72 h, read-out: Biofilm Viability [%] 2586 Live): 3.01%
- viability at 3 µM ([4]; Nakaseomyces glabratus, 2586BIOFILM, AAB alone 3 μM, 72 h, read-out: Biofilm Viability [%] 2586 Live): 2.52%
- Biofilm surface area ([5]; C9 combined with β-AE, optimal concentration configuration, control 84.52%): 1.12%
- Percentage of live cells ([5]; C9 in combination with β-AE, 72 h, control 97.46%): 3.33%
- viability at 1 µM ([5]; Nakaseomyces glabratus, 2853BIOFILM, AAB alone 1 μM, 72 h, read-out: Biofilm Viability [%] 2853 Live): 82.2%
- viability at 2 µM ([5]; Nakaseomyces glabratus, 2853BIOFILM, AAB alone 2 μM, 72 h, read-out: Biofilm Viability [%] 2853 Live): 76.2%
- viability at 3 µM ([5]; Nakaseomyces glabratus, 2853BIOFILM, AAB alone 3 μM, 72 h, read-out: Biofilm Viability [%] 2853 Live): 66.4%
- Biofilm surface area ([6]; C9 combined with β-AE, optimal concentration configuration, control 88.77%): 1.37%
- Percentage of live cells ([6]; C9 in combination with β-AE, 72 h, control 98.35%): 1.64%
- viability at 1 µM ([6]; Nakaseomyces glabratus, ATCC90030, AAB alone 1 μM, 72 h, read-out: Biofilm Viability [%] 90030 Live): 83.6%
- viability at 2 µM ([6]; Nakaseomyces glabratus, ATCC90030, AAB alone 2 μM, 72 h, read-out: Biofilm Viability [%] 90030 Live): 23.8%
- viability at 3 µM ([6]; Nakaseomyces glabratus, ATCC90030, AAB alone 3 μM, 72 h, read-out: Biofilm Viability [%] 90030 Live): 21.4%
- Hemolysis ([7]; all concentrations tested (0.25 up to 3 µM)): not hemolytic at all concentrations tested
- Surviving cells ([8]; 0.25 to 3 µM/mL): 100%

Molecule: β-aescin
- MFC ([1]; ATCC 90030): 256 µg/mL
- MIC90 ([1]; ATCC 90030): 128 µg/mL
- MFC [2]: 256 µg/mL
- MIC90 [2]: 256 µg/mL
- MFC [3]: 128 µg/mL
- MIC90 [3]: 128 µg/mL
- Multiplicity factor (MF) with C9 ([9]; C9 3 µM): 1
- MIC90 of antimycotic combined with C9 ([9]; C9 at constant 3 µM, dilutions in µg/mL): 128
- Multiplicity factor (MF) with C11 ([9]; C11 3 µM): 1
- MIC90 of antimycotic combined with C11 ([9]; C11 at constant 3 µM, dilutions in µg/mL): 128
- Multiplicity factor (MF) with C13 ([9]; C13 3 µM): 1
- MIC90 of antimycotic combined with C13 ([9]; C13 at constant 3 µM, dilutions in µg/mL): 128
- Multiplicity factor (MF) with C15 ([9]; C15 3 µM): 1
- MIC90 of antimycotic combined with C15 ([9]; C15 at constant 3 µM, dilutions in µg/mL): 128
- Biofilm Viability [%] 2586 Live ([4]; 1 MIC β-AE, 72 h): 9.33%
- Area of the biofilm ([4]; β-AE 1 × MIC, 72 h, control 73.17%, listed as β-AE): 59.3%
- Biofilm Viability [%] 2853 Live ([5]; 1 MIC β-AE, 72 h): 92.13%
- Area of the biofilm ([5]; β-AE 1 × MIC, 72 h, control 84.52%, listed as β-AE): 45.63%
- Biofilm Viability [%] 90030 Live ([6]; 1 MIC β-AE, 72 h): 76.70%
- Area of the biofilm ([6]; β-AE 1 × MIC, 72 h, control 88.77%): 68.98%
- Hemolysis ([7]; 100 up to 1000 µg/mL, 2 h, 37 °C): hemolytic at all concentrations tested
- Survival of the tested cell line ([8]; 64–512): 83–85%
